Test results taken from ChEMBL document CHEMBL1201862, “PubChem BioAssay data set” (2004).
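Cells were grown in 96-well plates and exposed to each compound for 48 hours at five concentrations; endpoints were interpolated linearly between bracketing concentrations, or set to the highest concentration if not reached. GI50 = concentration required for 50% inhibition of growth.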 Activity calls are given as the source filed them. Rule as the data show it: active = GI50 up to about 1.1 µM and inactive = higher.

Experiments:
Experiment in all cases: DTP human tumour cell line panel, 48 h
[1] = tested on: LOX IMVI
[2] = tested on: SK-OV-3
[3] = tested on: EKVX
[4] = tested on: SN12C
[5] = tested on: Malme-3M
[6] = tested on: LXFL 529
[7] = tested on: HL-60
[8] = tested on: CCRF-CEM
[9] = tested on: ACHN
[10] = tested on: DMS-114
[11] = tested on: OVCAR-5
[12] = tested on: HOP-18
[13] = tested on: KM12
[14] = tested on: M14
[15] = tested on: HOP-62
[16] = tested on: UACC-62
[17] = tested on: SR
[18] = tested on: HT-29
[19] = tested on: SK-MEL-2
[20] = tested on: HCT-15
[21] = tested on: NCI-H522
[22] = tested on: SNB-78
[23] = tested on: HCC 2998
[24] = tested on: UACC-257
[25] = tested on: UO-31
[26] = tested on: 786-0
[27] = tested on: SNB-75
[28] = tested on: A498
[29] = tested on: NCI-H23
[30] = tested on: SNB-19
[31] = tested on: SK-MEL-28
[32] = tested on: KM-20L2
[33] = tested on: RPMI-8226
[34] = tested on: MOLT-4
[35] = tested on: SK-MEL-5
[36] = tested on: CAKI-1
[37] = tested on: OVCAR-3
[38] = tested on: SF-268
[39] = tested on: OVCAR-4
[40] = tested on: NCI-H226
[41] = tested on: TK-10
[42] = tested on: K562
[43] = tested on: COLO 205
[44] = tested on: DLD-1
[45] = tested on: OVCAR-8
[46] = tested on: IGROV-1
[47] = tested on: DMS-273
[48] = tested on: HCT-116
[49] = tested on: A549
[50] = tested on: SW-620
[51] = tested on: RXF 393
[52] = tested on: U-251
[53] = tested on: NCI-H460
[54] = tested on: M19-MEL
[55] = tested on: SF-295
[56] = tested on: SF-539
[57] = tested on: HOP-92

Measured: GI50

CC(=O)c1cccc(C)c1C(=O)O
inactive: [1] > 100 µM | [2] > 100 µM | [3] > 100 µM | [4] > 100 µM | [5] > 100 µM | [6] > 100 µM | [7] > 100 µM | [8] > 100 µM | [9] > 100 µM | [10] > 100 µM | [11] > 100 µM | [12] > 100 µM | [13] > 100 µM | [14] > 100 µM | [15] > 100 µM | [16] > 100 µM | [17] > 100 µM | [18] > 100 µM | [19] > 100 µM | [21] > 100 µM | [22] 95.5 µM | [23] > 100 µM | [24] > 100 µM | [25] > 100 µM | [26] > 100 µM | [27] > 100 µM | [28] > 100 µM | [29] > 100 µM | [30] > 100 µM | [31] > 100 µM | [32] > 100 µM | [33] > 100 µM | [34] > 100 µM | [35] > 100 µM | [36] > 100 µM | [37] > 100 µM | [38] > 100 µM | [39] > 100 µM | [40] > 100 µM | [41] > 100 µM | [42] > 100 µM | [43] > 100 µM | [44] > 100 µM | [45] > 100 µM | [46] > 100 µM | [47] > 100 µM | [48] > 100 µM | [49] > 100 µM | [50] > 100 µM | [51] > 100 µM | [52] > 100 µM | [53] > 100 µM | [54] > 100 µM | [55] > 100 µM
> 100 µM: [20]

C[C@@H]1C2=CC[C@@]3(C)C(CCC3[C@H](C)[C@H]3C[C@@]4(C)O[C@@](c5cccnc5)(O3)OC4(C)C)[C@@H]2C2OC2[C@@]12CCC(=O)O2 (some centres not stated)
32.1 µM: [20]
inactive: [1] 31.5 µM | [2] 39.9 µM | [4] 33 µM | [5] 37.4 µM | [6] 35.5 µM | [7] 17 µM | [8] 31 µM | [9] 46.5 µM | [10] 33 µM | [11] 57.4 µM | [12] 20.5 µM | [13] 38.8 µM | [14] 26.1 µM | [15] 66.7 µM | [16] 30.3 µM | [17] 9.4 µM | [18] 34.6 µM | [19] 25.2 µM | [56] 52.2 µM | [21] 29.3 µM | [22] 85.1 µM | [23] 37 µM | [24] 44 µM | [25] 34.4 µM | [26] 38.2 µM | [27] 34 µM | [28] > 100 µM | [29] 34.2 µM | [30] 49.1 µM | [31] 90.8 µM | [32] 31.8 µM | [33] 29.2 µM | [57] 26.8 µM | [35] 33 µM | [36] 27.6 µM | [37] 24.1 µM | [38] > 100 µM | [41] 44.8 µM | [42] 27.5 µM | [43] 30 µM | [44] 49.1 µM | [45] 32.4 µM | [46] 76.6 µM | [47] 37.5 µM | [48] 40.8 µM | [49] 67.8 µM | [50] 37.7 µM | [52] 35.6 µM | [53] 32 µM | [54] 41.2 µM | [55] 31.2 µM
